What all share (type): in vivo
The test system of assay [1] is beet armyworm (Spodoptera exigua). Briefly: Insecticidal test for beet armyworm (treated lepidopteran diet). The following applies: Spodoptera exigua, 120 h, 2nd instar larvae, 5 days, rating of % Control, read-out: BAW, activity at 400 ppm against beet armyworm. Here is the method:
(§1) Insecticidal test for tobacco budworm (Heliothis virescens), beet armyworm (Spodoptera exigua), and cabbage looper (Trichoplusia ni).
(§2) To prepare test solution, the test compound was formulated at 400 ppm in 7.5 mL of 2 acetone: 1 tap water. 250 µL of the test solution was pipetted upon the surface of 8 mL of lepidopteran diet (modified Shorey) contained in each of five one-ounce plastic cups (one cup = 1 replication). […] After airdrying, the treated leaf discs were placed individually into one-ounce plastic cups. Each dried, treated cotton cotyledon disc was infested with a 2nd instar tobacco budworm larva, and each cabbage leaf disc was infested with a 2nd instar cabbage looper larva. Cups containing the treated substrates and larvae were capped and then held in a growth chamber at 25 °C, 50-55% RH, and 14 hr light: 10 hr dark for 5 days.

Assay [2] deals with cabbage looper (Trichoplusia ni). As to the kind of experiment: Insecticidal test for cabbage looper (leaf-dip, cabbage leaf discs). To be noted: Trichoplusia ni, foliar, 120 h, dipped cabbage leaf discs, 2nd instar larvae, 5 days, rating of % Control, read-out: CL, activity at 400 ppm against cabbage looper. Here is the method: as §1, §2
Assay [3] relates to cotton aphid (Aphis gossypii). As to the kind of experiment: Insecticidal test for cotton aphid (spray on infested squash cotyledons). To be noted: 50 ppm spray, all life stages, 3 days, rating of % Control. Here is the method:
Insecticidal test for cotton aphid (Aphis gossypii)
To prepare spray solutions, 1 mg of each test compound was dissolved into 1 mL of a 90:10 acetone:ethanol solvent. This 1 mL of chemical solution was added to 19 mL of water containing 0.05% Tween 20 surfactant to produce a 50 ppm spray solution.
Squash cotyledons were infested with cotton aphid (all life stages)16-20 hours prior to application of spray solution. The solution was sprayed on both sides of each infested squash cotyledon (0.5 mL x 2 each side) with a sweeping action until runoff. The plants were allowed to air dry and held for 3 days in a controlled room at 26 °C and 40% RH after which time the test was graded. Grading was by actual count using a dissecting microscope and comparison of test counts to the untreated check.

Assay [4] relates to two-spotted spider mite (Tetranychus urticae). As to the kind of experiment: Insecticidal test for two-spotted spider mite, ovicide method. The following applies: Tetranychus urticae, foliar, 144 h; ovicide method, cotton leaf discs, 6 days; rating of % Control; read-out: SM, activity against two-spotted spider mite. Here is the method: Insecticidal test for two-spotted spider mite (Tetranychus urticae)
Ten adult female two-spotted spider mites were placed on eight 2.2 cm leaf discs of cotton leaf, allowed to oviposit over 24 hours, and thereafter removed. […] Discs were placed on an agar substrate and held at 24 °C and 90% RH for 6 days.

The subject of assay [5] is Sweetpotato Whitefly (Bemisia tabacia). As to the kind of experiment: Insecticidal test for sweetpotato whitefly (spray on cotton plants). The following applies: Bemisia, 312 h, 200 ppm spray, large nymphs counted after 13 days, rating of % Control, read-out: WF, activity at 200 ppm against whitefly. On the procedure: Insecticidal test for Sweetpotato Whitefly (Bemisia tabacia)
Four mg of each test compound were dissolved by adding 4 mL of a 90:10 acetone:ethanol solvent mixture to the vial containing the sample compound. This solution was added to 16 mL of water containing 0.05% Tween 20 surfactant to produce 20 mL of a 200 ppm spray solution.
Five-week-old cotton plants reared in a greenhouse were stripped of all foliage except for the two uppermost true leaves that were greater than 5 cm in diameter. These plants were then placed into a laboratory colony of whiteflies for two days for oviposition by the colony females. All whiteflies were then removed from the test plants with pressurized air. The spray solution was then applied to the test plants with a hand-held syringe fitted with hollow cone nozzle. One mL spray solution was applied to each leaf top and bottom for a total of 4 mL per plant. Four replications of each test compound utilized a total of 16 mL spray solution. Plants were air dried and then placed in a holding chamber (28 °C and 60% RH) for 13 days. Compound efficacy was evaluated by counting, under an illuminated magnifying glass, the number of large nymphs (3rd-4th instar) per leaf
Percent control based on reduction of large nymphs of a test compound compared to solution-only (no test compound) sprayed plants is reported in Table 1-8.

The test system of assay [6] is tobacco budworm (Heliothis virescens). As to the kind of experiment: Insecticidal test for tobacco budworm (leaf-dip, cotton cotyledon discs). To be noted: Heliothis virescens, 120 h, dipped cotton cotyledon discs, 2nd instar larvae, 5 days, rating of % Control, read-out: TBW, activity at 400 ppm against tobacco budworm. Here is the method:
as §1, §2

Some results are limits rather than exact numbers.

As to `C[C@@H]1OC(c2c(F)cccc2F)=N[C@@H]1c1ccc(Br)cc1` (mixture of isomers) [Compound 2, (4R,5S)- and (4S,5R)-4-(4-bromophenyl)-2-(2,6-difluorophenyl)-5-methyl-4,5-dihydro-1,3-oxazole], the pest or weed control at 400 ppm in assay [1] and in assay [2] was less than 50% each time. Further, in assay [3], the “CA, activity at 50 ppm against cotton aphid” value (shortened to “CA, activity at 50 ppm”) was “A (90-100)”. The pest or weed control in assay [4] lay in the range of 90 to 100%. Also, in assay [5], the pest or weed control at 200 ppm fell in the range of 90 to 100%.
As to `C[C@@H]1OC(c2c(F)cccc2Cl)=N[C@@H]1c1ccc(Br)cc1` (mixture of isomers) [Compound 3, (4R,5S)- and (4S,5R)-4-(4-bromophenyl)-2-(2-chloro-6-fluorophenyl)-5-methyl-4,5-dihydro-1,3-oxazole], the pest or weed control at 400 ppm in assay [2] is 90 to 100%. Further, the “CA, activity at 50 ppm” value in assay [3] is given as “B (80-89)”. Also, in assay [4], the pest or weed control lay within 90 to 100%. Moreover, the pest or weed control at 200 ppm in assay [5] fell in the range of 90 to 100%.
As to `C[C@H]1OC(c2c(F)cccc2F)=N[C@H]1c1ccc(-c2ccc(OC(F)(F)F)cc2)cc1` (mixture of isomers) [Compound 6, (4S,5R)- and (4R,5S)-2-(2,6-difluorophenyl)-4-(4'-trifluoromethoxy-1,1'-biphenyl-4-yl)-5-methyl-4,5-dihydro-1,3-oxazole], the pest or weed control at 400 ppm in assay [6], in assay [1] and in assay [2] was 90 to 100% throughout. Moreover, in assay [3], the “CA, activity at 50 ppm” value is recorded as “A (90-100)”. For the same molecule, in assay [4], the pest or weed control lay within 90 to 100%. Besides, the pest or weed control at 200 ppm in assay [5] was 80 to 89%.
As for `CC(C)c1ccc(-c2ccc([C@@H]3N=C(c4c(F)cccc4F)O[C@@H]3C)cc2)cc1` (mixture of isomers) [Compound 7, (4S,5R)- and (4R,5S)-2-(2,6-difluorophenyl)-4-(4'-isopropyl-1,1'-biphenyl-4-yl)-5-methyl-4,5-dihydro-1,3-oxazole], the pest or weed control at 400 ppm in assay [6], in assay [1] and in assay [2] was 90 to 100% each time. The pest or weed control in assay [4] lay in the range of 60 to 69%. Moreover, the pest or weed control at 200 ppm in assay [5] fell in the range of 90 to 100%.
For `C[C@@H]1OC(c2c(F)cccc2F)=N[C@H]1c1ccc(-c2ccc(C(F)(F)F)cc2F)cc1` (mixture of isomers) [Compound 32, (4S,5S)- and (4R,5R)-2-(2,6-difluorophenyl)-4-[2'-fluoro-4'-(trifluoromethyl)-1,1'-biphenyl-4-yl]-5-methyl-4,5-dihydro-1,3-oxazole], the pest or weed control at 400 ppm in assay [6], in assay [1] and in assay [2] was 90 to 100% in each case. Moreover, the pest or weed control in assay [4] lay in the range of 70 to 79%. Also, the pest or weed control at 200 ppm in assay [5] was less than 50%.
For the molecule `Cc1cc(-c2ccc(C(F)(F)F)cc2)ccc1[C@H]1N=C(c2c(F)cccc2F)O[C@H]1C` (mixture of isomers) [Compound 39, (4R,5S)- and (4S,5R)-2-(2,6-difluorophenyl)-5-methyl-4-[3-methyl-4'-(trifluoromethyl)-1,1'-biphenyl-4-yl]-4,5-dihydro-1,3-oxazole], the pest or weed control at 400 ppm in assay [6], in assay [1] and in assay [2] was 90 to 100% in each case. The pest or weed control in assay [4] lay within 80 to 89%. Besides, the pest or weed control at 200 ppm in assay [5] was less than 50%.
For `Cc1cc(-c2ccc(OC(F)(F)F)cc2)ccc1[C@H]1N=C(c2c(F)cccc2F)O[C@H]1C` (mixture of isomers) [Compound 40, (4R,5S)- and (4S,5R)-2-(2,6-difluorophenyl)-5-methyl-4[3-methyl-4'-(trifluoromethoxy)-1,1'-biphenyl-4-yl]-4,5-dihydro-1,3-oxazole], the pest or weed control at 400 ppm in assay [6], in assay [1] and in assay [2] was 90 to 100% throughout. For the same molecule, the pest or weed control in assay [4] is 80 to 89%. Further, the pest or weed control at 200 ppm in assay [5] is less than 50%.

(Values after patent publication EP1397353B1, “2-(2,6-DISUBSTITUTED PHENYL)-4-ARYL-5-ALKYL-1,3-OXAZOLINE COMPOUNDS USEFUL AS INSECTICIDES AND ACARICIDES” (Dow AgroSciences LLC, priority 2001, dated 2003).)
